From patent US20240307294A1, “Topical Composition and Carrier for Administration of Pharmaceutically or Cosmetically Active Ingredients” (EMOLLIVET AB, priority 2013, published 2024) come the findings set out here.

The data set can be described thus: Carrier dissolution capacity (admixing controlled amounts of active agent). In kind it is physicochemical. As for the experimental part:
The dissolution capacity of different carriers was tested by admixing controlled amounts of active agent.

Where [1] appears, read: carrier Lipoid S100 0.0 / Urea 2.0 / Ethanol 98.0 % w/w.
The mark [2] stands for this setting: carrier Lipoid S100 5.0 / Urea 2.0 / Ethanol 93.0 % w/w.
[3] abbreviates: carrier Lipoid S100 10.0 / Urea 2.0 / Ethanol 88.0 % w/w.
Setting [4] is: carrier Lipoid S100 20.0 / Urea 2.0 / Ethanol 78.0 % w/w.
Where [5] appears, read: carrier Lipoid S100 30.0 / Urea 2.0 / Ethanol 68.0 % w/w.

As to Calcium pantothenate, the Highest complete dissolution runs as follows: under setting [1], 0.27 % w/w; (carrier Lipoid S100 3.4 / Urea 2.0 / Ethanol 94.7 % w/w) 0.41 % w/w; under setting [2], 0.50 % w/w; under setting [3], 0.98 % w/w; under setting [4], 1.81 % w/w; under setting [5], 3.17 % w/w. The molecule further registered a Lowest incomplete dissolution under setting [1] of 0.40 % w/w.

On to `C[C@]12CCC(=O)C=C1CC[C@@H]1[C@@H]2[C@@H](O)C[C@@]2(C)[C@H]1CC[C@]2(O)C(=O)CO` [Hydrocortisone], for which the Highest complete dissolution is, setting by setting: under setting [1], 2.09 % w/w; under setting [2], 2.22 % w/w; under setting [3], 2.48 % w/w; under setting [4], 2.82 % w/w; under setting [5], 3.19 % w/w; (carrier Lipoid S100 49.5 / Urea 1.0 / Ethanol 49.5 % w/w) 2.89 % w/w. The Lowest incomplete dissolution reads like this: under setting [1], 2.25 % w/w; (carrier Lipoid S100 5.0 / Urea 1.0 / Ethanol 94.0 % w/w) 2.28 % w/w; under setting [2], 2.37 % w/w; under setting [3], 2.83 % w/w; under setting [4], 3.22 % w/w; under setting [5], 3.50 % w/w.
